Patent publication US20220017877A1, “BILIRUBIN OXIDASE ACTIVITY IMPROVING METHOD, AND BILIRUBIN OXIDASE PRODUCT” (OZEKI CORPORATION, priority 2018, published 2022)

Target: T1, recombinant BOD (bilirubin oxidase) derived from Myrothecium verrucaria MT-1 (Albifimbria verrucaria, UniProt Q12737)
T1 construct: made in house; host or cells: Aspergillus sp
T1 sequence (Q12737 39-572): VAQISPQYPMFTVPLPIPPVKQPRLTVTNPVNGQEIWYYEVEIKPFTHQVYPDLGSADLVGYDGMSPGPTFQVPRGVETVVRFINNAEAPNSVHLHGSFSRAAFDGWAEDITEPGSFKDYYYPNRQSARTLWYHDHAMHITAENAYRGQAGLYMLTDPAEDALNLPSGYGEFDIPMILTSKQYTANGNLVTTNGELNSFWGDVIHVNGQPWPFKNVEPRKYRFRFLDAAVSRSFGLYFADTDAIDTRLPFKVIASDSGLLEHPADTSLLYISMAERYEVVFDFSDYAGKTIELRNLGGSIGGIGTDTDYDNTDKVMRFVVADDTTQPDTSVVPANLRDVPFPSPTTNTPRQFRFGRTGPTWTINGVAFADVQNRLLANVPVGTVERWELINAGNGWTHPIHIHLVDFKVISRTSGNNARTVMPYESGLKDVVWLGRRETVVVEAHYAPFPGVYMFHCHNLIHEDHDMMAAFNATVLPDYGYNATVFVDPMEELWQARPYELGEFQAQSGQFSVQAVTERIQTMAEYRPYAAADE
Assay: BOD activity after leaving the BOD solution with an activity improving agent or comparative substance at 30° C. in a deoxygenated atmosphere (Test Example 1)
Format: biochemical
Conditions: relative to Day 0, additive concentration as in Table 1; for Activity (%) Day 47: left 47 days at 30° C.
Procedure: A BOD solution, which contains: a BOD; and the present activity improving agent or a comparative substance, was left in an environment at a temperature of 30° C. in a deoxygenated atmosphere for a certain period of time. After the BOD solution was left as above, improvement of the BOD activity by the present activity improving method was evaluated by measurement of the BOD activity.
In Test Example 1, a BOD gene derived from a Myrothecium verrucaria MT-1 (GenBank accession number: D12579.1) was introduced into an Aspergillus sp., and then a recombinant BOD (hereinafter, also referred to simply as “BOD”) expressed in the Aspergillus sp. was purified by using a well-known technique and then used as the BOD. The BOD gene derived from the Myrothecium verrucaria MT-1 was codon-optimized in accordance with a gene sequence of the Aspergillus sp., and then introduced into the Aspergillus sp. Further, the BOD thus purified was dissolved in a 50 mM glycine-KOH (pH 8.5) buffer so that the concentration of the BOD became 1.0 mg/mL. Then, a resultant solution was used as a BOD enzyme solution.
The enzymatic activity of the BOD was measured as follows. To 1780 μL of a 50 mM potassium phosphate buffer (pH 6.5), 200 μL of a 20 mM ABTS substrate solution was added, so that a mixed solution (1980 μL) was prepared. This mixed solution was incubated for 1 min at 37° C. Thereafter, 20 μL of a solution containing the BOD (specifically, a BOD solution for evaluation, which will be described later) was added to the mixed solution, and a resultant mixed solution (2 mL) was incubated at 37° C. While the mixed solution was incubated, the absorbance of the mixed solution at a wavelength of 436 nm was measured immediately after that addition of the BOD solution for evaluation (at 0 seconds) and thereafter every 20 seconds. On the basis of (i) the absorbance of the mixed solution at a wavelength of 436 nm immediately after the addition of the BOD solution for evaluation and (ii) the absorbance of the mixed solution at a wavelength of 436 nm after a lapse of 1 minute from the addition of the BOD solution for evaluation, calculation was carried out for obtaining an increase rate per minute of the absorbance of the mixed solution at a wavelength of 436 nm after the addition of the BOD solution for evaluation. The BOD activity (unit) in the BOD solution for evaluation was calculated from the increase rate. In the present specification, the amount of enzyme for oxidizing 1 μmol of ABTS per minute was defined as one unit.
A specific test method of Test Example 1 is as follows. To a BOD enzyme solution containing a BOD, one of the above-described present activity improving agents was added, so that a BOD solution (which is the BOD solution according to an embodiment of the present invention) was prepared. Further, one of the above-described comparative substances was added to the BOD enzyme solution, so that another BOD solution was prepared. In addition, still another BOD solution was prepared by adding, to the BOD enzyme solution, distilled water in place of the activity improving agent or the comparative substance, so that a control (denoted as Without additive in Tables 1 to 3) was prepared. The final concentration of the activity improving agent or the comparative substance in each of the above BOD solutions was shown in “mM” or “percentage (%)” (amount (g) of the activity improving agent or the comparative substance relative to 100 mL of the BOD solution) in Table 1.
Thereafter, one of these BOD solutions and a deoxygenating agent (Anaero Pack manufactured by Mitsubishi Gas Chemical Company, Inc.) were included in one container. Then, the container was sealed, so that a BOD container was prepared. The BOD container was left in an environment at a temperature of 30° C. in a deoxygenated atmosphere for 47 days (Table 2) or 14 days (Table 3). […]

Compound	Activity (%) Day 47 [%]	Activity (%) Day 14 (left 14 days at 30° C.) [%]
O=C1O[C@H]([C@@H](O)CO)C(O)=C1O [L-ascorbic acid]	151	–
O=c1[nH]c(=O)c2[nH]c(=O)[nH]c2[nH]1 [Uric acid, uric acid]	155	156
